Measurements: ChEMBL document CHEMBL3351930, “Synthesis of novel chiral TBBt derivatives with hydroxyl moiety. Studies on inhibition of human protein kinase CK2α and cytotoxicity properties” (Eur J Med Chem, 2014)

Assays:
[1] = test system: CCRF-CEM; experiment: Anticancer activity against human CCRF-CEM cells assessed as cell viability at 50 uM after 24 hrs by MTT assay; format: functional; settings: read-out: Activity
[2] = test system: MCF7; experiment: Anticancer activity against human MCF7 cells assessed as cell viability at 50 uM after 24 hrs by MTT assay; format: functional; settings: MCF7, 24 h, read-out: Activity
[3] = test system: MCF7; experiment: Anticancer activity against human MCF7 cells assessed as cell viability at 25 uM after 24 hrs by MTT assay; format: functional; settings: MCF7, 24 h, read-out: Activity
[4] = test system: CCRF-CEM; experiment: Anticancer activity against human CCRF-CEM cells assessed as cell viability at 12.5 uM after 48 hrs by MTT assay; format: functional; settings: read-out: Activity
[5] = test system: MCF7; experiment: Anticancer activity against human MCF7 cells assessed as cell viability at 100 uM after 24 hrs by MTT assay; format: functional; settings: MCF7, 24 h, read-out: Activity
[6] = test system: MCF7; experiment: Anticancer activity against human MCF7 cells assessed as cell viability at 12.5 uM after 48 hrs by MTT assay; format: functional; settings: MCF7, 48 h, read-out: Activity
[7] = test system: MCF7; experiment: Anticancer activity against human MCF7 cells assessed as cell viability at 100 uM after 48 hrs by MTT assay; format: functional; settings: MCF7, 48 h, read-out: Activity
[8] = test system: MCF7; experiment: Anticancer activity against human MCF7 cells assessed as cell viability at 25 uM after 48 hrs by MTT assay; format: functional; settings: MCF7, 48 h, read-out: Activity
[9] = test system: MCF7; experiment: Anticancer activity against human MCF7 cells assessed as cell viability at 50 uM after 48 hrs by MTT assay; format: functional; settings: MCF7, 48 h, read-out: Activity
[10] = test system: CCRF-CEM; experiment: Anticancer activity against human CCRF-CEM cells assessed as cell viability at 12.5 uM after 24 hrs by MTT assay; format: functional; settings: read-out: Activity
[11] = test system: MCF7; experiment: Anticancer activity against human MCF7 cells assessed as cell viability at 12.5 uM after 24 hrs by MTT assay; format: functional; settings: MCF7, 24 h, read-out: Activity
[12] = test system: CCRF-CEM; experiment: Anticancer activity against human CCRF-CEM cells assessed as cell viability at 100 uM after 48 hrs by MTT assay; format: functional; settings: read-out: Activity
[13] = test system: CCRF-CEM; experiment: Anticancer activity against human CCRF-CEM cells assessed as cell viability at 100 uM after 24 hrs by MTT assay; format: functional; settings: read-out: Activity
[14] = test system: CCRF-CEM; experiment: Anticancer activity against human CCRF-CEM cells assessed as cell viability at 25 uM after 24 hrs by MTT assay; format: functional; settings: read-out: Activity
[15] = test system: CCRF-CEM; experiment: Anticancer activity against human CCRF-CEM cells assessed as cell viability at 50 uM after 48 hrs by MTT assay; format: functional; settings: read-out: Activity
[16] = biological target: Casein kinase II subunit alpha (Homo sapiens) (UniProt P68400); experiment: Inhibition of human CK2alpha using RRRDDDSDDD peptide substrate at 20 uM by P81 filter-binding assay; design: scale not given: the % may be the effect or the level left
Casein kinase II subunit alpha (Homo sapiens), sequence (P68400 whole entry, looked up): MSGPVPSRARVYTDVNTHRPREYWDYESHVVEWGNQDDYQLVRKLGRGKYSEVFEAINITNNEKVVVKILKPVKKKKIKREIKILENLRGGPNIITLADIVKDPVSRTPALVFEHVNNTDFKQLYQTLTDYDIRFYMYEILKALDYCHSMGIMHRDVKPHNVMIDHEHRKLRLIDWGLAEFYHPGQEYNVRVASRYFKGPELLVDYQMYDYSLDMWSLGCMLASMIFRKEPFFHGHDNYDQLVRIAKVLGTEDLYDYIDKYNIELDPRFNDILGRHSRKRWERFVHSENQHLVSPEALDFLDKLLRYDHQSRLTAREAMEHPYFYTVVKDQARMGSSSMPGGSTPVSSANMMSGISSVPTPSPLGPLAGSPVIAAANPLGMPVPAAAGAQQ

[17] = biological target: Casein kinase II subunit alpha (Homo sapiens) (UniProt P68400); experiment: Inhibition of human CK2alpha using RRRDDDSDDD peptide substrate at 200 uM by P81 filter-binding assay; design: scale not given: the % may be the effect or the level left
[18] = test system: CCRF-CEM; experiment: Anticancer activity against human CCRF-CEM cells assessed as cell viability at 25 uM after 48 hrs by MTT assay; format: functional; settings: read-out: Activity

Row | SMILES | Activity [16] | Activity [17] | viability at 50 µM [1] | viability at 50 µM [2] | viability at 25 µM [3] | viability at 12.5 µM [4] | viability at 100 µM [5] | viability at 12.5 µM [6] | viability at 100 µM [7] | viability at 25 µM [8] | viability at 50 µM [9] | viability at 12.5 µM [10] | viability at 12.5 µM [11] | viability at 100 µM [12] | viability at 100 µM [13] | viability at 25 µM [14] | viability at 50 µM [15] | viability at 25 µM [18]
1 | COc1cccc(C(O)CCn2nc3c(Br)c(Br)c(Br)c(Br)c3n2)c1 (stereo not given) | 95.1% | 87.5% | 58% | 22% | 71% | 96% | 16% | 97% | 6% | 96% | 20% | 110% | 121% | 2% | 48% | 106% | 2% | 50%
2 | Brc1c(Br)c(Br)c2[nH]nnc2c1Br [TETRABROMOBENZOTRIAZOLE] |  |  | 118% | 120% | 108% |  | 109% |  |  |  |  | 115% | 111% |  | 61% | 105% |  | 
3 | CC(O)CCn1nc2c(Br)c(Br)c(Br)c(Br)c2n1 (racemic) |  |  | 89% | 90% | 102% | 94% | 57% | 79% | 0% | 73% | 76% | 106% | 99% | 0% | 3% | 113% | 45% | 86%
4 | C[C@H](O)Cn1nc2c(Br)c(Br)c(Br)c(Br)c2n1 |  |  | 72% | 58% | 67% | 105% | 25% | 101% | 8% | 64% | 10% | 104% | 119% | 0% | 9% | 104% | 58% | 92%
5 | C[C@H](O)CCn1nc2c(Br)c(Br)c(Br)c(Br)c2n1 |  |  | 86% | 105% | 102% | 92% | 31% | 100% | 6% | 89% | 87% | 126% | 112% | 10% | 36% | 112% | 42% | 89%
6 | CC(O)Cn1nc2c(Br)c(Br)c(Br)c(Br)c2n1 (racemic) |  |  | 108% | 60% | 96% | 83% | 15% | 99% | 6% | 83% | 16% | 125% | 118% | 0% | 9% | 102% | 53% | 78%
7 | C[C@@H](O)CCn1nc2c(Br)c(Br)c(Br)c(Br)c2n1 |  |  | 69% | 102% | 105% | 94% | 18% | 86% | 0% | 77% | 64% | 88% | 109% | 24% | 36% | 81% | 23% | 71%
8 | OCC(O)Cn1nc2c(Br)c(Br)c(Br)c(Br)c2n1 (racemic) |  |  | 47% | 98% | 156% | 60% | 53% | 116% | 8% | 111% | 109% | 78% | 145% | 1% | 8% | 89% | 27% | 56%

Continued, in another order:

Row | Activity [16] | Activity [17] | SMILES | viability at 50 µM [1] | viability at 50 µM [2] | viability at 25 µM [3] | viability at 12.5 µM [4] | viability at 100 µM [5] | viability at 12.5 µM [6] | viability at 100 µM [7] | viability at 25 µM [8] | viability at 50 µM [9] | viability at 12.5 µM [10] | viability at 12.5 µM [11] | viability at 100 µM [12] | viability at 100 µM [13] | viability at 25 µM [14] | viability at 50 µM [15] | viability at 25 µM [18]
9 | 97.4% | 33.5% | OC(CCn1nc2c(Br)c(Br)c(Br)c(Br)c2n1)c1ccc(Br)cc1 (stereo not given) | 58% | 10% | 59% | 89% | 0% | 107% | 0% | 105% | 15% | 101% | 82% | 0% | 0% | 109% | 0% | 69%
10 | 95.6% | 45.4% | OC(CCn1nc2c(Br)c(Br)c(Br)c(Br)c2n1)c1ccc(Cl)cc1 (stereo not given) | 56% | 19% | 96% | 93% | 0% | 100% | 0% | 92% | 9% | 105% | 90% | 0% | 0% | 106% | 0% | 69%
11 | 91.4% | 35.4% | OC(CCn1nc2c(Br)c(Br)c(Br)c(Br)c2n1)c1ccc(F)cc1 (stereo not given) | 46% | 16% | 101% | 101% | 0% | 109% | 0% | 97% | 7% | 110% | 116% | 0% | 0% | 104% | 0% | 88%
12 | 74.9% | 23.8% | OC(CCn1nc2c(Br)c(Br)c(Br)c(Br)c2n1)c1cccc(Cl)c1 (stereo not given) | 71% | 28% | 96% | 70% | 0% | 107% | 0.5% | 101% | 12% | 110% | 97% | 0% | 0% | 118% | 0% | 68%
13 | 93% | 31.1% | OC(CCn1nc2c(Br)c(Br)c(Br)c(Br)c2n1)c1ccccc1 (racemic) | 66% | 28% | 99% | 89% | 13% | 113% | 0% | 105% | 23% | 122% | 115% | 0% | 21% | 123% | 0% | 84%
14 | 96.6% | 43.4% | OC(CCn1nc2c(Br)c(Br)c(Br)c(Br)c2n1)c1cccc(Br)c1 (stereo not given) | 54% | 14% | 52% | 118% | 1% | 102% | 0% | 106% | 11% | 102% | 81% | 0% | 0% | 123% | 0% | 54%
